Reference: PubChem BioAssay (NCI)
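These data come from cells grown in 96-well plates and exposed to compound for 48 hours at five concentrations. TGI: total growth inhibition.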

Legend:
Assay in all cases: NCI tumour cell line growth inhibition, 48 h
[1] = test system: SK-MEL-2 melanoma
[2] = test system: HT29 colon
[3] = test system: CAKI-1 renal
[4] = test system: COLO 205 colon
[5] = test system: EKVX NSCLC
[6] = test system: IGROV1 ovarian
[7] = test system: OVCAR-3 ovarian
[8] = test system: TK-10 renal
[9] = test system: UACC-62 melanoma
[10] = test system: HL-60(TB) leukemia
[11] = test system: OVCAR-5 ovarian
[12] = test system: U251 CNS
[13] = test system: SK-MEL-28 melanoma

Row | Structure (SMILES) | TGI [1] [µM] | TGI [2] [µM] | TGI [3] [µM] | TGI [4] [µM] | TGI [5] [µM] | TGI [6] [µM] | TGI [7] [µM] | TGI [8] [µM] | TGI [9] [µM] | TGI [10] [µM] | TGI [11] [µM] | TGI [12] [µM] | TGI [13] [µM]
1 | CC(C)(C)SC1=CCC[C@@H](P(=O)(c2ccccc2)c2ccccc2)[C@@H]2CCC[C@@H]12 | 31.8 | 28.3 | 32.9 | 34.1 | 33.7 | 36 | 32.7 | 32.3 | 24.9 | 47.5 | 27.1 | 33.3 | 54.6
2 | COc1cc(Cn2c3c(c4cc(O)ccc42)C(=O)c2ccccc2C3=O)cc(OC)c1 | > 100 | 16.2 | 55.5 | 34.7 | 48.2 | 13 | 77.7 | 34.9 | 7.64 | > 100 | 32.9 | 18.6 | 28.4
3 | COC(=O)[C@]1(c2cc3ccccc3n2S(=O)(=O)c2ccccc2)CC2CCC1NC2 (stereo partly specified) | 31.7 | 25.7 | 29.4 | 29.7 | 30.1 | 33.7 | 33.1 | > 100 | 29.5 | 16.9 | 29.9 | 26.4 | 32
4 | Cc1c(-c2ccccc2)n(C)c2cn[nH]c(=O)c12 | 48 | 81.3 | > 100 | 32 | > 100 | > 100 | 47.7 | > 100 | > 100 | > 100 | > 100 | > 100 | > 100
5 | CCOC(=O)Cn1nc2ccc(Nc3nc4ccccc4nc3C(=O)OCC)cc2n1 | > 100 | > 100 | > 100 | > 100 | > 100 | > 100 | > 100 | > 100 | > 100 | > 100 | > 100 | > 100 | > 100
6 | Cc1ccc2c(c1)NC(=O)C(N=[N+]=[N-])(c1ccccc1)C2=O (stereo unspecified) | 36.2 | 43.9 | 78.1 | 27.1 | 95.3 | > 100 | 37.7 | > 100 | 61.3 | 37.5 | > 100 | 74.6 | > 100
7 | COC(=O)[C@]1(c2cc3ccccc3[nH]2)CC2CN(CC(=O)N(C)OC)C1C1OC(C)(C)OC21 (stereo partly specified) | > 100 | > 100 | > 100 | > 100 | > 100 | > 100 | > 100 | > 100 | > 100 | 51.4 | > 100 | > 100 | > 100
8 | C(/COc1cccnc1)=N\NC1=NCCN1 | > 100 | > 100 | > 100 | > 100 | > 100 | > 100 | > 100 | > 100 | > 100 | > 100 | > 100 | > 100 | > 100
9 | CS(=O)(=O)C(=Cc1ccccc1Cl)S(C)(=O)=O | > 100 | > 100 | > 100 | > 100 | > 100 | > 100 | > 100 | > 100 | > 100 | > 100 | > 100 | > 100 | > 100
10 | O=[N+]([O-])C(=C1Nc2ccccc2N1)C(Cl)=C(Cl)Cl | > 100 | > 100 | > 100 | > 100 | > 100 | > 100 | 53.1 | > 100 | > 100 | > 100 | > 100 | > 100 | > 100
11 | COC(=O)C(Cc1ccccc1)NS(=O)(=O)c1ccc(-c2c3nc(c(-c4ccc(S(=O)(=O)NC(Cc5ccccc5)C(=O)OC)cc4)c4ccc([nH]4)c(-c4ccc(S(=O)(=O)NC(Cc5ccccc5)C(=O)OC)cc4)c4nc(c(-c5ccc(S(=O)(=O)NC(Cc6ccccc6)C(=O)OC)cc5)c5ccc2[nH]5)C=C4)C=C3)cc1 (stereo unspecified) | > 100 | > 100 | > 100 | > 100 | > 100 | > 100 | > 100 | > 100 | > 100 | > 100 | > 100 | > 100 | > 100
12 | O=[N+]([O-])c1cc(Cl)ccc1S(=O)(=O)c1ccccc1 | 53.8 | > 100 | > 100 | > 100 | > 100 | > 100 | > 100 | > 100 | > 100 | > 100 | > 100 | > 100 | > 100
13 | CCCNc1[nH]c(C(C)=O)c(N)c1C(=S)Nc1ccccc1 | > 100 | 53.2 | > 100 | > 100 | > 100 | > 100 | > 100 | > 100 | 41.6 | > 100 | > 100 | > 100 | 68.3
14 | Cc1sc(N=Nc2c(O)[nH]c3ccccc23)nc1-c1ccccc1 | 49.5 | 54.5 | 32.8 | 46.2 | 31.6 | 27.1 | 27.2 | 59.2 | 34.3 | 25 | 49.3 | 34.3 | 79.8
15 | Cn1cc(-c2ccc(CCOC3CCCCO3)cc2)c2c(C#N)cccc21 (stereo unspecified) | > 100 | 45.3 | > 100 | 67.5 | > 100 | > 100 | > 100 | > 100 | > 100 | > 100 | > 100 | > 100 | 42.4
16 | Cc1cc2c3c(ccc4ncc(c43)CN2c2ccc(NS(C)(=O)=O)cc2)[nH]1 | > 100 | > 100 | 64.5 | > 100 | > 100 | > 100 | 81.5 | 73.1 | > 100 | > 100 | > 100 | > 100 | > 100

Row | Structure (SMILES) | TGI [1] [µM] | TGI [2] [µM] | TGI [3] [µM] | TGI [4] [µM] | TGI [5] [µM] | TGI [6] [µM] | TGI [7] [µM] | TGI [8] [µM] | TGI [9] [µM] | TGI [10] [µM] | TGI [11] [µM] | TGI [12] [µM] | TGI [13] [µM]
17 | CC(C)(C)OC(=O)C(C1NC(C(=O)O)C(C)(C)S1)N1C(=O)c2ccccc2C1=O (stereo unspecified) | > 100 | > 100 | > 100 | > 100 | > 100 | > 100 | > 100 | > 100 | > 100 | > 100 | > 100 | > 100 | > 100
18 | CC(C)NC(C)Cc1ccccc1 (stereo unspecified) | > 100 | > 100 | > 100 | > 100 | > 100 | > 100 | > 100 | > 100 | > 100 | > 100 | > 100 | > 100 | > 100
19 | C[C@H](CCc1nc(C#N)c(N)o1)[C@H]1CC[C@H]2[C@@H]3[C@@H](O)CC4C[C@@H](O)CC[C@]4(C)[C@H]3C[C@@H](O)[C@]12C (stereo partly specified) | 45.1 | 45.6 | > 100 | 40.5 | 98.1 | 33.2 | > 56.9 | > 68.1 | 30.5 | > 26.9 | 58.3 | 49.5 | 47.2
20 | Nc1nc(Cl)c2ncn(Cc3ccccc3CCl)c2n1 | 80.6 | 18.9 | 20.4 | > 100 | 31.1 | > 100 | 10.9 | 36.7 | 4.33 | > 100 | 39.8 | 13.4 | 20.7
21 | CC1=NN(C(=O)c2ccc(Cl)cc2)C(=O)/C1=C/c1cccc(O)c1 | > 100 | > 100 | > 100 | > 100 | > 100 | > 100 | > 100 | > 100 | > 100 | > 100 | > 100 | > 100 | > 100
22 | COc1ccc(-c2nc3ccc(C)cc3o2)c(OC)c1 | 71.7 | 30.2 | 76.1 | 40.7 | 63 | 76.3 | 46.9 | 76.5 | 70.2 | 50 | 42 | 65 | > 100
23 | CC[C@H](CCCCC1CC[C@@H]2CC(=O)C[C@H]12)OC (stereo partly specified) | > 100 | > 100 | > 100 | > 100 | > 100 | > 100 | > 100 | > 100 | > 100 | > 100 | > 100 | > 100 | > 100
24 | CCCCNc1nc(SC)nc2nc[nH]c12 | > 100 | > 100 | > 100 | > 100 | > 100 | > 100 | > 100 | > 100 | > 100 | > 100 | > 100 | > 100 | > 100
25 | CC(=O)OCCn1c(Cc2ccc([N+](=O)[O-])cc2)nn(C(C)=O)c1=O | > 100 | > 100 | > 100 | > 100 | > 100 | > 100 | > 100 | > 100 | > 100 | > 100 | > 100 | > 100 | > 100
26 | Nc1nc(Cl)cc(Nc2ccc3c(c2)CCC3)n1 | > 100 | > 100 | > 100 | > 100 | > 100 | > 100 | > 100 | > 100 | > 100 | 80.9 | > 100 | > 100 | > 100
27 | O=C(O)/C(=C\c1ccccc1)Cc1ccccc1 | > 100 | > 100 | > 100 | > 100 | > 100 | > 100 | > 100 | > 100 | > 100 | > 100 | > 100 | > 100 | > 100
28 | CCOC(=O)c1sc2nc(SC)nc(Nc3ccc(OC)c(OC)c3)c2c1N | > 100 | > 100 | > 100 | > 100 | > 100 | > 100 | > 100 | 76.4 | > 100 | > 100 | > 100 | > 100 | 52.7
29 | CCOc1ccc(N=Cc2cc(OC)c(OC)c(OC)c2)cc1 | > 100 | > 100 | > 100 | > 100 | > 100 | > 100 | > 100 | > 100 | > 100 | > 100 | > 100 | > 100 | > 100
30 | CN1N=C(c2ccncc2)OC1c1ccc(Cl)c(Cl)c1 (stereo unspecified) | > 100 | > 100 | > 100 | > 100 | > 100 | > 100 | > 100 | > 100 | > 100 | > 100 | > 100 | > 100 | > 100
31 | CCCCCCCCCCCCCCCCCCNc1ccn(C2OC(CO)C(OP(=O)(O)OCC3CCC(n4ccc(N)nc4=O)O3)C2O)c(=O)n1 (stereo unspecified) | > 100 | > 100 | > 100 | > 100 | > 100 | > 100 | > 100 | > 100 | > 100 | 43.6 | > 100 | > 100 | > 100
32 | C=CCCCC1(C)CCCCNC1=O (stereo unspecified) | > 10 | > 10 | > 10 | > 10 | > 10 | > 10 | > 10 | > 10 | > 10 | > 10 | > 10 | > 10 | > 10
